Consider four compounds from ChEMBL document CHEMBL4477252, “Optimization of microtubule affinity regulating kinase (MARK) inhibitors with improved physical properties” (Bioorg Med Chem Lett, 2016).

SMILES strings stand for the structures. Bounds are passed on as bounds.

Ribosomal protein S6 kinase beta-1, sequence (P23443 whole entry, the tested form may be a part): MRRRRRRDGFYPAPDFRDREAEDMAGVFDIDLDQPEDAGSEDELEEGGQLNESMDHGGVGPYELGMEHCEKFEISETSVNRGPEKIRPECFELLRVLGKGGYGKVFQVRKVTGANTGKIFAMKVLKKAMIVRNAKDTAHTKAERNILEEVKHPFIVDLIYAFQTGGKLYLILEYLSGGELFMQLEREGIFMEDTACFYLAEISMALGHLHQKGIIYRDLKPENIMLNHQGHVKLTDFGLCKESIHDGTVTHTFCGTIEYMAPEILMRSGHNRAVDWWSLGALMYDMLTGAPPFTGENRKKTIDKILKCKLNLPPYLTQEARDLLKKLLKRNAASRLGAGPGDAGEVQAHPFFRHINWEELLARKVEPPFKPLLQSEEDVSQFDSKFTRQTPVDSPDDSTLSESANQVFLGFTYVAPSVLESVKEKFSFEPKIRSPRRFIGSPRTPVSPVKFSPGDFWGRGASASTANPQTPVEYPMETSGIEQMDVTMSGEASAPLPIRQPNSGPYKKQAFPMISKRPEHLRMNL
Serine/threonine-protein kinase 26, sequence (Q9P289 whole entry): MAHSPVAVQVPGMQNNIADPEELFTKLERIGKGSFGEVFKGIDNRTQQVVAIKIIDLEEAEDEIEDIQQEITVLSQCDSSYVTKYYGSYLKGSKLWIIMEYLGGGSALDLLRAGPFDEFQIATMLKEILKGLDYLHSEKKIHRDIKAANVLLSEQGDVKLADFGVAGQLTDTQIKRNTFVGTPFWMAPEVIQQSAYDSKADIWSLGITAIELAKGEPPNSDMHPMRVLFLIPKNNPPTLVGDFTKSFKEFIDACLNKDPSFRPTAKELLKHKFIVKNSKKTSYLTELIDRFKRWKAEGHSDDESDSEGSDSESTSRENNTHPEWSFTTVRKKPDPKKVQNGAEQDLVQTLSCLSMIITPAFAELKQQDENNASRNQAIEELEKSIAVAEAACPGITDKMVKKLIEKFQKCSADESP
RAF proto-oncogene serine/threonine-protein kinase, sequence (P04049 whole entry Y340D/Y341D): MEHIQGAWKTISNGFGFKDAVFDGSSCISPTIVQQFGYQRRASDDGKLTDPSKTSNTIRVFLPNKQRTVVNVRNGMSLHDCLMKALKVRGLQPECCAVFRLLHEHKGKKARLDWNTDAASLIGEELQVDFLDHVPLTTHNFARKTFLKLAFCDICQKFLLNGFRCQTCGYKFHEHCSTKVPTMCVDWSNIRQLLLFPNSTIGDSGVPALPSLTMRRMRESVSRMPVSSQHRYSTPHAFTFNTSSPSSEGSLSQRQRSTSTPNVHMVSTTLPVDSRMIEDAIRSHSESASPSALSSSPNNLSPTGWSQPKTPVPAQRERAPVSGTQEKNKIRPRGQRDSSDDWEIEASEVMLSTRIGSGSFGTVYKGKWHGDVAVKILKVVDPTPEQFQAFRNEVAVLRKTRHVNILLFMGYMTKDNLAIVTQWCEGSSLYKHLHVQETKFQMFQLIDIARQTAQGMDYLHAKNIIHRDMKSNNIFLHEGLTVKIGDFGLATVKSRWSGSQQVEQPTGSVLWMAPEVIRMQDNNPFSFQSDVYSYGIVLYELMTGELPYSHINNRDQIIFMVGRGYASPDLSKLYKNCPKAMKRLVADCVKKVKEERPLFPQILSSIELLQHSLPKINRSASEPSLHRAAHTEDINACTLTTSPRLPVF

The first assay has as its target Ribosomal protein S6 kinase beta-1 (Homo sapiens, UniProt P23443). Description: Inhibition of full-length recombinant human GST-tagged RPS6KB1 catalytic domain expressed in baculovirus expression system by Z'-LYTE assay.
For `O=C(NCC(F)(F)F)c1cc(-c2cnn3cc(-c4ccc(OCCN5CCCCC5)cc4)cnc23)cs1`, the IC50 worked out at 88 nM.
As to `Cn1cc(-c2cnc3c(-c4csc(C(=O)NCC(F)(F)F)c4)cnn3c2)cn1`, the IC50 amounted to 110 nM.
In the case of `Cc1sc(C(=O)N[C@@H]2[C@H](N)CCCC2(F)F)cc1-c1cnn2cc(Cl)cnc12`, the IC50 was found to be 1500 nM.
For the compound `Cn1cc(-c2cnc3c(-c4csc(C(=O)N[C@@H]5CCCC[C@@H]5N)c4)cnn3c2)cn1` (racemic), the IC50 came to 8 nM.

Another assay concerns the target RAF proto-oncogene serine/threonine-protein kinase (Homo sapiens, UniProt P04049, Y340D/Y341D). As to the kind of experiment: Inhibition of recombinant human GST-tagged RAF1 Y340D/Y341D mutant expressed in baculovirus expression system by Z'-LYTE assay.
Take `O=C(NCC(F)(F)F)c1cc(-c2cnn3cc(-c4ccc(OCCN5CCCCC5)cc4)cnc23)cs1`: the IC50 was 630 nM.
As to `Cn1cc(-c2cnc3c(-c4csc(C(=O)NCC(F)(F)F)c4)cnn3c2)cn1`, the IC50 amounted to 560 nM.
Take `Cc1sc(C(=O)N[C@@H]2[C@H](N)CCCC2(F)F)cc1-c1cnn2cc(Cl)cnc12`: the IC50 is 950 nM.
`Cn1cc(-c2cnc3c(-c4csc(C(=O)N[C@@H]5CCCC[C@@H]5N)c4)cnn3c2)cn1` (racemic): the IC50 came out at 48 nM.

A further assay concerns the target T1, 3-phosphoinositide-dependent protein kinase 1 (Homo sapiens, UniProt O15530).
T1 sequence (O15530 whole entry): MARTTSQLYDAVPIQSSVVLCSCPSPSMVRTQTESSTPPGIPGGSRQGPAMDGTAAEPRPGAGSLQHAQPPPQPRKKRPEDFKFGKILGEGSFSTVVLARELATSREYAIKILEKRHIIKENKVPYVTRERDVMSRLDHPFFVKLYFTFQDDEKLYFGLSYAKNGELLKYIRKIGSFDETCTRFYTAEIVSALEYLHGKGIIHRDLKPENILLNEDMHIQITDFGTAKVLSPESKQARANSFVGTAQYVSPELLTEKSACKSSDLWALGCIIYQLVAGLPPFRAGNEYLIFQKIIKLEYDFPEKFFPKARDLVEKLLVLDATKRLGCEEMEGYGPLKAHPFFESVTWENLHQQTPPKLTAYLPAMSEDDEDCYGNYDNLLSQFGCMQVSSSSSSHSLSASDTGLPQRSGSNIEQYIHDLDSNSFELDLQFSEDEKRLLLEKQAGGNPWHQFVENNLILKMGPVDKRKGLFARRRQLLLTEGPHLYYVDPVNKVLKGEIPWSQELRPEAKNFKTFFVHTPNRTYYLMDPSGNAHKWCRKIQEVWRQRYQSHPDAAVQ
Description: Inhibition of full-length recombinant human His-tagged PDK1 expressed in baculovirus expression system by Z'-LYTE assay.
On to `O=C(NCC(F)(F)F)c1cc(-c2cnn3cc(-c4ccc(OCCN5CCCCC5)cc4)cnc23)cs1`, for which the IC50 was 130 nM.
`Cn1cc(-c2cnc3c(-c4csc(C(=O)NCC(F)(F)F)c4)cnn3c2)cn1`: the IC50 is 53 nM.
The same measure, in the same setting: as for `Cc1sc(C(=O)N[C@@H]2[C@H](N)CCCC2(F)F)cc1-c1cnn2cc(Cl)cnc12`, the figure is 330 nM; as for `Cn1cc(-c2cnc3c(-c4csc(C(=O)N[C@@H]5CCCC[C@@H]5N)c4)cnn3c2)cn1` (racemic), 20 nM.

The target in a further assay is Tyrosine-protein kinase JAK2 (Homo sapiens, UniProt O60674). Description: Inhibition of recombinant human GST-tagged cytoplasmic JAK2 (809 to 1153 residues) expressed in baculovirus expression system by Z'-LYTE assay.
Tyrosine-protein kinase JAK2, sequence (O60674 whole entry, the tested form may be a part): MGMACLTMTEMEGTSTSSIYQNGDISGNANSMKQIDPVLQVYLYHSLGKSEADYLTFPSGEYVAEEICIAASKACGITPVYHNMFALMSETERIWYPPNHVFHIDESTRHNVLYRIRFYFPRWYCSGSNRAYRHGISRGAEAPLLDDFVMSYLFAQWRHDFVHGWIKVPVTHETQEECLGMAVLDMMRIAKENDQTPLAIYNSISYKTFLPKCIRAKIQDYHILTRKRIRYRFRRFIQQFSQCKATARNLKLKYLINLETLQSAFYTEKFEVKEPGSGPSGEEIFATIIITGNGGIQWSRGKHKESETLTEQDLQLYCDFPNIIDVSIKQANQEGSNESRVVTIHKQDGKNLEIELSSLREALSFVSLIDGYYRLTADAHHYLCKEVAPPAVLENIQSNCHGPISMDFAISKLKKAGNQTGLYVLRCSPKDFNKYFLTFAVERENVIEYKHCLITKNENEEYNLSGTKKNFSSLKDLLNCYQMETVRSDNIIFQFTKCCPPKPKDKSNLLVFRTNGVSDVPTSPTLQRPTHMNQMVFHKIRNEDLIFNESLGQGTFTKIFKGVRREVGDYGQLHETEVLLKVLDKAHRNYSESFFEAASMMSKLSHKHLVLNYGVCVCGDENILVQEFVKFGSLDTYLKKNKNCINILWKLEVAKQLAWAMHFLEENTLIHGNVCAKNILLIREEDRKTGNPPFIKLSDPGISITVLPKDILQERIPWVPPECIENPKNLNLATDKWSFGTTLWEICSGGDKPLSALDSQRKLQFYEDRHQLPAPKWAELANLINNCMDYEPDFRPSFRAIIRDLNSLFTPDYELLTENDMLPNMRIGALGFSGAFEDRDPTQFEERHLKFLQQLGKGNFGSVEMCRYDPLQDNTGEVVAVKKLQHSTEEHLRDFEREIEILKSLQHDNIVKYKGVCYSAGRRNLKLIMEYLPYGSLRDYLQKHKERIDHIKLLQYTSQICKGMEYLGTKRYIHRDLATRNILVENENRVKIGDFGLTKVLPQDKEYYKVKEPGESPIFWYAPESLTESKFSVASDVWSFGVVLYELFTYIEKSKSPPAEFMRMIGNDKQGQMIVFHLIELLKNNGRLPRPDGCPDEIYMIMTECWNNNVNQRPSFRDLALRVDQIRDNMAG
With `O=C(NCC(F)(F)F)c1cc(-c2cnn3cc(-c4ccc(OCCN5CCCCC5)cc4)cnc23)cs1`, the IC50 came out at 2400 nM.
For the compound `Cn1cc(-c2cnc3c(-c4csc(C(=O)NCC(F)(F)F)c4)cnn3c2)cn1`, the IC50 came to 1200 nM.
Still for that read-out and setting: next, `Cc1sc(C(=O)N[C@@H]2[C@H](N)CCCC2(F)F)cc1-c1cnn2cc(Cl)cnc12`: 4400 nM; `Cn1cc(-c2cnc3c(-c4csc(C(=O)N[C@@H]5CCCC[C@@H]5N)c4)cnn3c2)cn1` (racemic): 64 nM.

The next assay has as its target Serine/threonine-protein kinase 26 (Homo sapiens, UniProt Q9P289). Description: Inhibition of full-length recombinant human GST-tagged MST4 expressed in baculovirus expression system by Z'-LYTE assay.
Take `O=C(NCC(F)(F)F)c1cc(-c2cnn3cc(-c4ccc(OCCN5CCCCC5)cc4)cnc23)cs1`: the IC50 is 1100 nM.
Turning to `Cn1cc(-c2cnc3c(-c4csc(C(=O)NCC(F)(F)F)c4)cnn3c2)cn1`, the IC50 was 290 nM.
Take `Cc1sc(C(=O)N[C@@H]2[C@H](N)CCCC2(F)F)cc1-c1cnn2cc(Cl)cnc12`: the IC50 stood at 170 nM.
Consider `Cn1cc(-c2cnc3c(-c4csc(C(=O)N[C@@H]5CCCC[C@@H]5N)c4)cnn3c2)cn1` (racemic), for which the IC50 is 6.3 nM.

The next assay deals with NT-3 growth factor receptor (Homo sapiens, UniProt Q16288). As to the kind of experiment: Inhibition of recombinant human His-tagged cytoplasmic NTRK3 expressed in baculovirus expression system by Z'-LYTE assay.
NT-3 growth factor receptor, sequence (Q16288 whole entry): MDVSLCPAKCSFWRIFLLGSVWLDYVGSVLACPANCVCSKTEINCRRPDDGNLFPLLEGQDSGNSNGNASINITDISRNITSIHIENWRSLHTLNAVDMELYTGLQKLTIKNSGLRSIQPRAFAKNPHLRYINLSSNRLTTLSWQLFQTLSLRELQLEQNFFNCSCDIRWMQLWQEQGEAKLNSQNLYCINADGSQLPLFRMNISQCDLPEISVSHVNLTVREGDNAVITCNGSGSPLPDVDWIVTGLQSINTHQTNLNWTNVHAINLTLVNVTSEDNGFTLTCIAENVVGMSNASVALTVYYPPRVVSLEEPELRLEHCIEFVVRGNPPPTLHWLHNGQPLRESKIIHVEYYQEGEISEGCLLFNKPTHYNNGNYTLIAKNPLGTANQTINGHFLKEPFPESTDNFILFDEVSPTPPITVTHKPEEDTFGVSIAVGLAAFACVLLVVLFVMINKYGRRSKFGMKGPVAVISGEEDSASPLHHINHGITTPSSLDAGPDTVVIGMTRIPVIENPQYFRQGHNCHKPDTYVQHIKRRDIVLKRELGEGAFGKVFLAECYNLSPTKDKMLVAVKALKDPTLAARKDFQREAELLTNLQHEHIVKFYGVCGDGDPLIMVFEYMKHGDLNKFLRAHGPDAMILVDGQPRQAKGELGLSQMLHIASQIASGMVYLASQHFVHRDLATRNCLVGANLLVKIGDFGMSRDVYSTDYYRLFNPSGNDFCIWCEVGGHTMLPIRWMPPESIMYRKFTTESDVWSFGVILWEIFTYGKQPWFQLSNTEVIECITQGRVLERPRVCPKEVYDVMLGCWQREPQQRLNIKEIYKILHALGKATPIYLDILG
Regarding `O=C(NCC(F)(F)F)c1cc(-c2cnn3cc(-c4ccc(OCCN5CCCCC5)cc4)cnc23)cs1`, the IC50 was found to be 380 nM.
Regarding `Cn1cc(-c2cnc3c(-c4csc(C(=O)NCC(F)(F)F)c4)cnn3c2)cn1`, the IC50 turned out to be 120 nM.
Take `Cc1sc(C(=O)N[C@@H]2[C@H](N)CCCC2(F)F)cc1-c1cnn2cc(Cl)cnc12`: the IC50 worked out at 1400 nM.
As for `Cn1cc(-c2cnc3c(-c4csc(C(=O)N[C@@H]5CCCC[C@@H]5N)c4)cnn3c2)cn1` (racemic), the IC50 is 13 nM.

Another assay deals with T2, Serine/threonine-protein kinase TBK1 (Homo sapiens, UniProt Q9UHD2).
T2 sequence (Q9UHD2 whole entry): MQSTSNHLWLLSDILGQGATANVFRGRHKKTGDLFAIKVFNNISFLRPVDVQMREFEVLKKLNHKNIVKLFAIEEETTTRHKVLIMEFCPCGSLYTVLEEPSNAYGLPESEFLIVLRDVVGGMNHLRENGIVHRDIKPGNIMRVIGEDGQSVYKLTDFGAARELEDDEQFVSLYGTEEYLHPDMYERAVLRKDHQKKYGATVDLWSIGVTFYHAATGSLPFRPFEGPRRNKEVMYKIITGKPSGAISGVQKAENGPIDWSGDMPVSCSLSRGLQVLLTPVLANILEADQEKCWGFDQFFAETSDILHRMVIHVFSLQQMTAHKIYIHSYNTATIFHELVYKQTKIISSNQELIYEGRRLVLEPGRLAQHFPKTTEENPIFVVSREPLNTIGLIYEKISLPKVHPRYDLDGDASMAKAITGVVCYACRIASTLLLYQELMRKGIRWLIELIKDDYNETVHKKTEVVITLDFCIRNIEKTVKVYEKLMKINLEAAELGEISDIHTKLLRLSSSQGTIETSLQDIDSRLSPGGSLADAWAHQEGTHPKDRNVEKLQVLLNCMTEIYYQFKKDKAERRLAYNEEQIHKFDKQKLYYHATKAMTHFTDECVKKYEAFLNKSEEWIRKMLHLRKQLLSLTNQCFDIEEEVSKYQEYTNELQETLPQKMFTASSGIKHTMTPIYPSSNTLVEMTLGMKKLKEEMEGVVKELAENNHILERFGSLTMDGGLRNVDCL
As to the kind of experiment: Inhibition of full-length recombinant human GST-tagged TBK1 expressed in insect cells by Z'-LYTE assay.
With `O=C(NCC(F)(F)F)c1cc(-c2cnn3cc(-c4ccc(OCCN5CCCCC5)cc4)cnc23)cs1`, the IC50 is less than 10 nM.
In the case of `Cn1cc(-c2cnc3c(-c4csc(C(=O)NCC(F)(F)F)c4)cnn3c2)cn1`, the IC50 is less than 10 nM.
As to `Cc1sc(C(=O)N[C@@H]2[C@H](N)CCCC2(F)F)cc1-c1cnn2cc(Cl)cnc12`, the IC50 is less than 10 nM.
As to `Cn1cc(-c2cnc3c(-c4csc(C(=O)N[C@@H]5CCCC[C@@H]5N)c4)cnn3c2)cn1` (racemic), the IC50 was less than 1 nM.

A further assay deals with Vascular endothelial growth factor receptor 2 (Homo sapiens, UniProt P35968). As to the kind of experiment: Inhibition of recombinant human His-tagged cytoplasmic KDR expressed in baculovirus expression system by Z'-LYTE assay.
Vascular endothelial growth factor receptor 2, sequence (P35968 whole entry): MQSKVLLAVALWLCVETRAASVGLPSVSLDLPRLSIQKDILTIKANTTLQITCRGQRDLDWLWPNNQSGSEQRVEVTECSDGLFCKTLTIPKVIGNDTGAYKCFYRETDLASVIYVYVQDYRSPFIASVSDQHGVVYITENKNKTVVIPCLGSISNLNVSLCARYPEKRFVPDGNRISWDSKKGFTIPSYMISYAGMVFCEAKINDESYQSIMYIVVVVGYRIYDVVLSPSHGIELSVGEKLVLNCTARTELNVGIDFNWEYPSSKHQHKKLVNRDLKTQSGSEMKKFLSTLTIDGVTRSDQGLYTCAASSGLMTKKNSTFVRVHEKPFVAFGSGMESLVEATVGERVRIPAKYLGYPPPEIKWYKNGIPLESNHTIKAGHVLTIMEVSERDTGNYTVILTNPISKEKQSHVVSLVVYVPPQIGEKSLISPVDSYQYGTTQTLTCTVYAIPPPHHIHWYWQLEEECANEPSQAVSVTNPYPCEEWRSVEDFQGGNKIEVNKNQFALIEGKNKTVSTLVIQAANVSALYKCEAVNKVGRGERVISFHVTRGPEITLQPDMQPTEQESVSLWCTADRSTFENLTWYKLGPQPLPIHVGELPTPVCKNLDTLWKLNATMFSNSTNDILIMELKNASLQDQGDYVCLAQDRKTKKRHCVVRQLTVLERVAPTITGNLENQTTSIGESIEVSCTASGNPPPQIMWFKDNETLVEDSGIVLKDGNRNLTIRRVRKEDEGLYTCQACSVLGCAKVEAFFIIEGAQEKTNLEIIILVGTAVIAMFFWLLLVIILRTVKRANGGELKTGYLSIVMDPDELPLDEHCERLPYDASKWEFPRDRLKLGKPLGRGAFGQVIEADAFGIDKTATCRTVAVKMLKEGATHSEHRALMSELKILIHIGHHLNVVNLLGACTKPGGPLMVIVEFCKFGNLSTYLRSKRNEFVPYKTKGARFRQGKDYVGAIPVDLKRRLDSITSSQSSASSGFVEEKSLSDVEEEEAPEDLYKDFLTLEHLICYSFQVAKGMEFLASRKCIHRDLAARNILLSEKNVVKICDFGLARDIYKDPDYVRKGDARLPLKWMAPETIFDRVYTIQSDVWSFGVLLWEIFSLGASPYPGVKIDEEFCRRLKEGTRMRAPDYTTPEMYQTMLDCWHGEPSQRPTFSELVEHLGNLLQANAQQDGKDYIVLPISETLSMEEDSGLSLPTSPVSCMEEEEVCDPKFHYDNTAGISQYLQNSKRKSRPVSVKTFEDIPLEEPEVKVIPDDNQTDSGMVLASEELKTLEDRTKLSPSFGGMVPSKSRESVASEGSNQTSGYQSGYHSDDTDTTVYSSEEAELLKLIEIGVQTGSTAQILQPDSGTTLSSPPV
On to `O=C(NCC(F)(F)F)c1cc(-c2cnn3cc(-c4ccc(OCCN5CCCCC5)cc4)cnc23)cs1`, for which the IC50 was less than 10 nM.
On the same count and under the same terms, as for `Cn1cc(-c2cnc3c(-c4csc(C(=O)NCC(F)(F)F)c4)cnn3c2)cn1`, the figure is 15 nM; as for `Cc1sc(C(=O)N[C@@H]2[C@H](N)CCCC2(F)F)cc1-c1cnn2cc(Cl)cnc12`, 11000 nM; as for `Cn1cc(-c2cnc3c(-c4csc(C(=O)N[C@@H]5CCCC[C@@H]5N)c4)cnn3c2)cn1` (racemic), 3.5 nM.

The target of another assay is T3, Tyrosine-protein kinase JAK3 (Homo sapiens, UniProt P52333).
T3 sequence (P52333 whole entry): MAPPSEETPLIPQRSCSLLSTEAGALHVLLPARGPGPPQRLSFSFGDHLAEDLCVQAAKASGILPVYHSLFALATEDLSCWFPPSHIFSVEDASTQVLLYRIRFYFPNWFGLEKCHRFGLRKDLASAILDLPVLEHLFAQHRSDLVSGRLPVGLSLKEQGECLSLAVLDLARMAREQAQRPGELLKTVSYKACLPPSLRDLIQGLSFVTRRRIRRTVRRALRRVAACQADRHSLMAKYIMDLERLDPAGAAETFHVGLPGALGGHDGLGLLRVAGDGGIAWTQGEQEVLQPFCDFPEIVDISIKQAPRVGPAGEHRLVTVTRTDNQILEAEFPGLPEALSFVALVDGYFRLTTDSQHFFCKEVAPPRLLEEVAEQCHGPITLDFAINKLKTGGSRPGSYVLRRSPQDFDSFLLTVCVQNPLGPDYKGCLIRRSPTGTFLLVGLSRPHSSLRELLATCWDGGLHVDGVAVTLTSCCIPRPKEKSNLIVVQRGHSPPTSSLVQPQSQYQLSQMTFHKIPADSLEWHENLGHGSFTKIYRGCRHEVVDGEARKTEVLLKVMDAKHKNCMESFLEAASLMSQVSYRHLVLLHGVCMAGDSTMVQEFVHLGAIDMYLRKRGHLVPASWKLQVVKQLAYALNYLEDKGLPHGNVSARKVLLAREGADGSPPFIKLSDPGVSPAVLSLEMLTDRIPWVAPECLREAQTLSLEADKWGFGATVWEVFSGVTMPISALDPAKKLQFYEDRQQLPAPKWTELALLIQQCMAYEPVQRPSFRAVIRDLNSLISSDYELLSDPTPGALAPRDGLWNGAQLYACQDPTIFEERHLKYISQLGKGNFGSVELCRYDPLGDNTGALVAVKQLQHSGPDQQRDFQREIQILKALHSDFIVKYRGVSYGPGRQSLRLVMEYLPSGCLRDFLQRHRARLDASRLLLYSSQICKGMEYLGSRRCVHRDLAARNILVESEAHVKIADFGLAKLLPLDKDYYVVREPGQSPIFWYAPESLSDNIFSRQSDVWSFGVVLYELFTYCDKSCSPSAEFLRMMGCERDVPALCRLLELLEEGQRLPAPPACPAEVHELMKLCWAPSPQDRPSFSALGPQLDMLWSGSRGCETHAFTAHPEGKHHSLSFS
Description: Inhibition of recombinant human GST-tagged JAK3 catalytic domain expressed in baculovirus expression system by Z'-LYTE assay.
Regarding `O=C(NCC(F)(F)F)c1cc(-c2cnn3cc(-c4ccc(OCCN5CCCCC5)cc4)cnc23)cs1`, the IC50 stood at 280 nM.
The same measure, in the same setting: as for `Cn1cc(-c2cnc3c(-c4csc(C(=O)NCC(F)(F)F)c4)cnn3c2)cn1`, the figure is 430 nM; as for `Cc1sc(C(=O)N[C@@H]2[C@H](N)CCCC2(F)F)cc1-c1cnn2cc(Cl)cnc12`, 1300 nM.
With `Cn1cc(-c2cnc3c(-c4csc(C(=O)N[C@@H]5CCCC[C@@H]5N)c4)cnn3c2)cn1` (racemic), the IC50 worked out at 33 nM.
